Data: the NIST ThermoML archive (doi:10.1016/j.fluid.2017.12.001)

Tests used:
[1] = 101.33 kPa, Liquid; for viscosity: Concentric cylinders viscometry; for mass density: Vibrating tube method; for speed of sound: Single path-length method
[2] = xn = mol fraction of the nth substance listed; conditions: 100.9 kPa, Liquid, Concentric cylinders viscometry, x2 = 0

O [water]
[1]
Conditions	mass density [kg/m3]	speed of sound [m/s]	viscosity [mPa·s]
283 K	999.72	–	1.31
286 K	999.46	1457	1.23
288 K	–	–	1.15
291 K	998.69	1475	1.08
293 K	–	–	1.02
296 K	997.66	1490	0.96
298 K	–	–	0.9
301 K	996.37	1503	0.85
303 K	–	–	0.8
306 K	994.87	1515	0.76
308 K	–	–	0.72
311 K	993.15	1525	0.69
313 K	–	1529	0.65
316 K	991.23	1533	0.62
318 K	–	1537	0.59
321 K	989.15	1540	0.57
323 K	988.03	–	0.54

O [water] + CCCC(=O)[O-].CC[NH2+]CC
[2]
Conditions	viscosity [mPa·s]
283.15 K	1.31
285.65 K	1.23
288.15 K	1.15
290.65 K	1.08
293.15 K	1.02
295.65 K	0.96
298.15 K	0.9
300.65 K	0.85
303.15 K	0.8
305.65 K	0.76
308.15 K	0.72
310.65 K	0.69
313.15 K	0.65
315.65 K	0.62
318.15 K	0.59
320.65 K	0.57
323.15 K	0.54
325.65 K	0.51
328.15 K	0.49
330.65 K	0.47
333.15 K	0.45
335.65 K	0.43
338.15 K	0.41
340.65 K	0.39
343.15 K	0.37
